One experiment addresses PI3K α (Homo sapiens, UniProt P42336). Briefly: PI 3-Kinase (human) HTRF assay, PI3K α.
In another experiment the target is PI3K β (Homo sapiens, UniProt P42338). Briefly: PI 3-Kinase (human) HTRF assay, PI3K β. Background: TR-FRET usually uses a lanthanide donor and a delayed reading to cut background.
A further experiment deals with PI3K γ (Homo sapiens, UniProt P48736). Description: PI 3-Kinase (human) HTRF assay, PI3K γ.
The target of another experiment is PI3K δ (Homo sapiens, UniProt O00329). Description: PI 3-Kinase (human) HTRF assay, PI3K δ. The settings on record: read-out: PI3K δ IC50.
PI3K δ, sequence (O00329 whole entry): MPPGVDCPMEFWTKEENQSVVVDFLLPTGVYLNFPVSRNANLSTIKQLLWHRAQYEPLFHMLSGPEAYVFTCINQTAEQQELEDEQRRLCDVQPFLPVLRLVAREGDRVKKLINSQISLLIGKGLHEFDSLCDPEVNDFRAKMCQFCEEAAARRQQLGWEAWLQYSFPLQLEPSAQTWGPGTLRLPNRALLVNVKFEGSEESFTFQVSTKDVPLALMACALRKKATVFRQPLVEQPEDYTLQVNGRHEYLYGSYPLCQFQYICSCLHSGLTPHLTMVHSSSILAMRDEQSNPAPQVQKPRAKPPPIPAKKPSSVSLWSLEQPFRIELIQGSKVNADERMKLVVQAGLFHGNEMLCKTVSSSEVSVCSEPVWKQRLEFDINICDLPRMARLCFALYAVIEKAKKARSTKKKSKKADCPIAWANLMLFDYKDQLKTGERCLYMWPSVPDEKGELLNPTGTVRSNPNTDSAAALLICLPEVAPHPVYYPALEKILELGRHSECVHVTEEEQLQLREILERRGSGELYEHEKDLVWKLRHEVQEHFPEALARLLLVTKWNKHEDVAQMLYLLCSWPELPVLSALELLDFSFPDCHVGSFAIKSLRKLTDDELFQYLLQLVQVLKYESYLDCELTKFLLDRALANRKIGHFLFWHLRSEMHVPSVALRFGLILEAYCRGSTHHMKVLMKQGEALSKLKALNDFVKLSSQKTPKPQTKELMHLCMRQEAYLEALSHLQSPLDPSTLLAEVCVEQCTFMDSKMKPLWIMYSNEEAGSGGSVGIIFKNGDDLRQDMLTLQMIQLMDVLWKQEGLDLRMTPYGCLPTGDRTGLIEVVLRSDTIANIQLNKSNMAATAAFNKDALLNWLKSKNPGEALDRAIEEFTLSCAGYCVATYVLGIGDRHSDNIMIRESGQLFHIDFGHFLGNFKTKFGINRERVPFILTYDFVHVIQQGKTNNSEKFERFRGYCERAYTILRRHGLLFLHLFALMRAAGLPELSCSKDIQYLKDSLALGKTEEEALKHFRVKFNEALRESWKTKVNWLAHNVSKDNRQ
PI3K δ, sequence (P27986 whole entry partner): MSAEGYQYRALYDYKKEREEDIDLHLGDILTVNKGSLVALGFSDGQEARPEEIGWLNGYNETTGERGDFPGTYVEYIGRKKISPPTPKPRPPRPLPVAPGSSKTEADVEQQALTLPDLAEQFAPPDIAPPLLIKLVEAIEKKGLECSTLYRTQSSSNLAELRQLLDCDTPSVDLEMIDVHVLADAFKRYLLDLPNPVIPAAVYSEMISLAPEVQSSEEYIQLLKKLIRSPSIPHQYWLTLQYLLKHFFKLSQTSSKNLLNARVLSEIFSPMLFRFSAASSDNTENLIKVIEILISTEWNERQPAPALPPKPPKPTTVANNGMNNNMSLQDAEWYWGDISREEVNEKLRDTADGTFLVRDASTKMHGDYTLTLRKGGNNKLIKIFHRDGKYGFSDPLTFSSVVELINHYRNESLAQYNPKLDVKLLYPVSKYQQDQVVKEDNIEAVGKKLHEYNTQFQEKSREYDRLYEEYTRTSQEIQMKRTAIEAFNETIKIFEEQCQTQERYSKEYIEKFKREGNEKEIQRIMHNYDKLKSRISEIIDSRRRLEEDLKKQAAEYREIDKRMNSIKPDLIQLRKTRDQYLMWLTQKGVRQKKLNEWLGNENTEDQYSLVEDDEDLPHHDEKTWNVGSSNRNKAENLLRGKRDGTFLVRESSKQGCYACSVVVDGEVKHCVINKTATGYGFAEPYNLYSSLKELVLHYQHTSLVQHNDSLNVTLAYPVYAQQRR
Where [1] appears, read: read-out: PI3K α IC50, in vitro.
The mark [2] stands for this setting: read-out: PI3K β IC50, in vitro.
The mark [3] stands for this setting: read-out: PI3K γ IC50, in vitro.

Where two headings read alike, the source gives them in different places.

PI3K α, sequence (P42336 whole entry): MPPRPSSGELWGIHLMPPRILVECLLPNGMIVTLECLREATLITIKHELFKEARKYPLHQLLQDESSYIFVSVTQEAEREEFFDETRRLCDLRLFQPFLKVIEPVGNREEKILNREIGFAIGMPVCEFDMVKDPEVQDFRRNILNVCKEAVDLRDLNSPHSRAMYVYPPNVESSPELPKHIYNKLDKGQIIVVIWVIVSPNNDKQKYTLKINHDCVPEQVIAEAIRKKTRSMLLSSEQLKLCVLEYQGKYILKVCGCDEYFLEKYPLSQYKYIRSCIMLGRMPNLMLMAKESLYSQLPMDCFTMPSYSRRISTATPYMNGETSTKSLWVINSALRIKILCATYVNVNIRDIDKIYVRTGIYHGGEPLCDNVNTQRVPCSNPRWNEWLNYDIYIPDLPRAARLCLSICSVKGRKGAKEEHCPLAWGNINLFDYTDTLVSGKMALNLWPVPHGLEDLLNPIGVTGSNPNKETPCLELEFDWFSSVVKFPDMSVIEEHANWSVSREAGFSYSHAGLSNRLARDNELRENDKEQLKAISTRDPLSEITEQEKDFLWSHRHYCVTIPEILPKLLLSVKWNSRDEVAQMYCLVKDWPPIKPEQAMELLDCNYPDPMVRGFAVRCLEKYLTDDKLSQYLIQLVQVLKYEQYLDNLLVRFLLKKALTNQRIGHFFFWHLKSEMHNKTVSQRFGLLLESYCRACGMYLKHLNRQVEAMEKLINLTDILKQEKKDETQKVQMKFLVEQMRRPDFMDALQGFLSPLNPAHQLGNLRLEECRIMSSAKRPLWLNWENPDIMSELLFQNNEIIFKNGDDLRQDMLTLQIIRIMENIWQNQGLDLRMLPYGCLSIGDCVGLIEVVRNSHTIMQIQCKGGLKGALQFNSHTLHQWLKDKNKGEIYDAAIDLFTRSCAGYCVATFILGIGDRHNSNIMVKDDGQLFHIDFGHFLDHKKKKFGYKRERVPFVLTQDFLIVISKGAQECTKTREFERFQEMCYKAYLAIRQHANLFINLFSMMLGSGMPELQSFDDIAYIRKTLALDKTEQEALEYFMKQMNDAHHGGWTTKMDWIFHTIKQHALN
PI3K α, sequence (P27986 whole entry partner): as the sequence (P27986 whole entry partner) above
PI3K β, sequence (P42338 whole entry): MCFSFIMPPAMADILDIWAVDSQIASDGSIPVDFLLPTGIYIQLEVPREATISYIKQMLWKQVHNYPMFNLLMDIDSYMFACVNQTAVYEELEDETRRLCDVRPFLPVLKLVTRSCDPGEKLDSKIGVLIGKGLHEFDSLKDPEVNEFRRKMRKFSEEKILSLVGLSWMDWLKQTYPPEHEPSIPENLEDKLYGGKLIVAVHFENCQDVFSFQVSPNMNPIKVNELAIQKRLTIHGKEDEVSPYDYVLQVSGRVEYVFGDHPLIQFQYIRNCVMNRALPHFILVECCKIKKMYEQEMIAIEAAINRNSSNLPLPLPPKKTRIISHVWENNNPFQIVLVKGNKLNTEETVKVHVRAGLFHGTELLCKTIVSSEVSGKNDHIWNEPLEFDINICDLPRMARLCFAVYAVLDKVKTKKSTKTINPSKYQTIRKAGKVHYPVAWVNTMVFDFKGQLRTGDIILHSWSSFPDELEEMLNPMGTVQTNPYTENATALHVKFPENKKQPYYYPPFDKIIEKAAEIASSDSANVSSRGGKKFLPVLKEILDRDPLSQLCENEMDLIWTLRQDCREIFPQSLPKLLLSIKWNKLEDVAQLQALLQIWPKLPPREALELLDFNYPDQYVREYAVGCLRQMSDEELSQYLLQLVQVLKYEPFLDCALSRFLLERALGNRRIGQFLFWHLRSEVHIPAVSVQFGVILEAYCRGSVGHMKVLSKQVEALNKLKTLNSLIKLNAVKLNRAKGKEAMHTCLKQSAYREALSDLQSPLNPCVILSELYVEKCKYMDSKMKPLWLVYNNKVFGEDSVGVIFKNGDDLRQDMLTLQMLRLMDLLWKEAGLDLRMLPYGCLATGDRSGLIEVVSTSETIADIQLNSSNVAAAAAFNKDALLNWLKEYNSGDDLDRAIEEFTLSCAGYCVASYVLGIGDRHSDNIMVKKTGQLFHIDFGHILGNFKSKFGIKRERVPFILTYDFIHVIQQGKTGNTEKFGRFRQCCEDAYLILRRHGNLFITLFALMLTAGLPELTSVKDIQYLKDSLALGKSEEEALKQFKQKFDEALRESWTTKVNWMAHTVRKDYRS
PI3K β, sequence (P27986 whole entry partner): as the sequence (P27986 whole entry partner) above
PI3K γ, sequence (P48736 whole entry): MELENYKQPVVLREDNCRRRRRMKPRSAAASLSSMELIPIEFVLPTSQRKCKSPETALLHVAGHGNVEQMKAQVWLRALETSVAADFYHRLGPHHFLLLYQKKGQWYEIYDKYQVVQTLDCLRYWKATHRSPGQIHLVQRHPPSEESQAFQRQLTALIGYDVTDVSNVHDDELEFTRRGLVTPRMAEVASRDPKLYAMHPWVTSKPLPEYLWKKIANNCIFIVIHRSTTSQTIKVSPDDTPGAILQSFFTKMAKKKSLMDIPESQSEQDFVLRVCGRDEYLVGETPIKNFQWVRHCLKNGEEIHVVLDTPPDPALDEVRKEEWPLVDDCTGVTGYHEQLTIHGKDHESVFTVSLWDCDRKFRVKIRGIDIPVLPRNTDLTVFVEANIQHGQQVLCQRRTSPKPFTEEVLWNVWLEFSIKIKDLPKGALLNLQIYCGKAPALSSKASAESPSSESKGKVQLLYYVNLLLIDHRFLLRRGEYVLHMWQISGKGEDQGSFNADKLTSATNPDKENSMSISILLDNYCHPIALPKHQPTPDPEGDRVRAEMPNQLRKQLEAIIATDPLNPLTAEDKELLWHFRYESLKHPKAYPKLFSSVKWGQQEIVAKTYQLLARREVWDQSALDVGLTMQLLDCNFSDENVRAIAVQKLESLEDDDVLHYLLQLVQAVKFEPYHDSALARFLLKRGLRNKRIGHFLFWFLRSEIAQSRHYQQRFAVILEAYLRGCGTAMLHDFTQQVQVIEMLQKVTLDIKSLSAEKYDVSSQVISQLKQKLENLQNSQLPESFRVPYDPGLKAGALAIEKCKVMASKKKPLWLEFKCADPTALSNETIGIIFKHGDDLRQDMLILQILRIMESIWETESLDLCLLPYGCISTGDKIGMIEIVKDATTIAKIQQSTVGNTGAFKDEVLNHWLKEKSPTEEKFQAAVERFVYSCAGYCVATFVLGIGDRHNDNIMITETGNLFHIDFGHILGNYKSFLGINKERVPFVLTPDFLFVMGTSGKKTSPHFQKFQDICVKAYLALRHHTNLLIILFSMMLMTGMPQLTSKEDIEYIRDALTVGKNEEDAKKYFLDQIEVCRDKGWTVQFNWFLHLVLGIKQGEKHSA
Procedure for PI3K α: (§1) An exemplary system is PI 3-Kinase (human) HTRF™ Assay from Upstate. […] Briefly, the assay is a time resolved FRET assay that indirectly measures PIP3 product formed by the activity of a PI3-K. The kinase reaction is performed in a microtitre plate (e.g., a 384 well microtitre plate). The total reaction volume is approximately 20 ul per well. In the first step, each well receives 2 ul of test compound in 20% dimethylsulphoxide resulting in a 2% DMSO final concentration. […] The plate is sealed and incubated for 15 minutes at room temperature. […] The plate is sealed and incubated for 1 hour at room temperature. The reaction is stopped by adding 5 ul of Stop Solution per well and then 5 ul of Detection Mix is added per well. The plate is sealed, incubated for 1 hour at room temperature, and then read on an appropriate plate reader. Data is analyzed and IC50s are generated using GraphPad Prism 5.
Procedure for PI3K γ: as §1
Procedure for PI3K δ: as §1

As to `O=C(c1cnc2ccc(-c3cncc4c3cnn4CCO)cn12)N1CCOCC1` [Compound 539], the IC50 at PI3K α (setting [1]), at PI3K β (setting [2]), at PI3K γ (setting [3]) and on PI3K δ (in vitro) was above 10 µM throughout.

Turning to `Cc1cc(-c2ccc3nc(N)oc3c2)cn2c(-c3ccncc3)nnc12` [Compound 543], the IC50 (in general, the concentration that inhibits the measured activity by half) was above 10 µM at PI3K α (setting [1]), below 10 µM at PI3K β (setting [2]), above 10 µM at PI3K γ (setting [3]) and above 10 µM at PI3K δ (in vitro).

For `Nc1nc2cc(-c3ccc4ncc(C(=O)NCCOCCO)n4c3)ccc2o1` [Compound 550], the IC50 on PI3K α and against PI3K γ was below 1 µM each time.

Consider `CC1CN(C2CN(c3cnc4ccc(-c5ccc6oc(N)nc6c5)nc4n3)C2)CCO1` (stereo not shown) [Compound 569], for which the IC50 was below 1 µM at PI3K α (read-out: PI3K α IC50, Table 4); above 10 µM on PI3K β (read-out: PI3K β IC50, Table 4); below 10 µM on PI3K γ (read-out: PI3K γ IC50, Table 4); above 10 µM at PI3K δ (Table 4).

As for `Nc1nc2cc(-c3ccc4ncc(N5CC(N6CC7CCC(C6)O7)C5)nc4n3)ccc2o1` [Compound 571], the IC50 at PI3K α (read-out: PI3K α IC50, Table 4) was below 1 µM; on PI3K β (read-out: PI3K β IC50, Table 4), above 10 µM; on PI3K γ (read-out: PI3K γ IC50, Table 4), below 10 µM; at PI3K δ (Table 4) it was above 10 µM.

In the case of `Nc1nc2cc(-c3ccc4ncc(N5C6CCC5COC6)cc4n3)ccc2o1` [Compound 574], the IC50 on PI3K α (read-out: PI3K α IC50, Table 4) was below 0.1 µM; at PI3K β (read-out: PI3K β IC50, Table 4), below 10 µM; at PI3K γ (read-out: PI3K γ IC50, Table 4), below 0.1 µM; on PI3K δ it was above 10 µM.

Consider `Nc1nc2cc(-c3ccc4ncc(N5CCNC(=O)C5)nc4n3)ccc2o1` [Compound 580], for which the IC50 on PI3K α was below 0.1 µM; against PI3K β, below 1 µM; against PI3K γ it was below 0.1 µM.

For the molecule `Nc1nc2cc(-c3ccc4ncc(N5CC(N6CCN(CC7CC7)CC6)C5)nc4n3)ccc2o1` [Compound 586], the IC50 is below 10 µM at PI3K β (read-out: PI3K β IC50, Table 4); below 10 µM at PI3K γ (read-out: PI3K γ IC50, Table 4); below 10 µM on PI3K δ (Table 4).

Consider `CC(C)(N)C(=O)N1CCN(c2cnc3ccc(-c4ccc5oc(N)nc5c4)nc3n2)CC1` [Compound 591], for which the IC50 on PI3K β (read-out: PI3K β IC50, Table 4) was below 10 µM; at PI3K γ (read-out: PI3K γ IC50, Table 4), below 10 µM; on PI3K δ it was below 10 µM.

On to `Nc1nc2cc(-c3ccc4ncc(N5CC(N6CCN(CCO)CC6)C5)nc4n3)ccc2o1` [Compound 597], for which the IC50 was below 10 µM on PI3K β (read-out: PI3K β IC50, Table 4); below 10 µM at PI3K γ (read-out: PI3K γ IC50, Table 4); below 10 µM at PI3K δ (Table 4).

Turning to `C[C@@H]1COCCN1C1CN(c2cnc3ccc(-c4ccc5oc(N)nc5c4)nc3n2)C1` [Compound 600], the IC50 is below 10 µM at PI3K α (read-out: PI3K α IC50, Table 4) and below 10 µM at PI3K γ (read-out: PI3K γ IC50, Table 4).

Regarding `Cc1nccn1C1CN(c2cnc3ccc(-c4ccc5oc(N)nc5c4)nc3n2)C1` [Compound 601], the IC50 was below 10 µM at PI3K β (read-out: PI3K β IC50, Table 4); below 10 µM at PI3K γ (read-out: PI3K γ IC50, Table 4); below 10 µM on PI3K δ (Table 4).

`Nc1nc2cc(-c3ccc4ncc(N5CC(N6C7CCC6COC7)C5)nc4n3)ccc2o1` [Compound 602]: the IC50 at PI3K α (read-out: PI3K α IC50) is below 10 µM; on PI3K β (read-out: PI3K β IC50, Table 4), above 10 µM; on PI3K γ (read-out: PI3K γ IC50) it was above 10 µM; on PI3K δ, above 10 µM.

For `Nc1nc2cc(-c3ccc4ncc(N5CC6CCC(C5)O6)cc4n3)ccc2o1` [Compound 610], the IC50 at PI3K α (read-out: PI3K α IC50, Table 4) was below 0.1 µM; at PI3K β (read-out: PI3K β IC50, Table 4) it was above 10 µM; at PI3K γ (read-out: PI3K γ IC50, Table 4), below 0.1 µM; on PI3K δ (Table 4) it was above 10 µM.

Regarding `Nc1nc2cc(-c3ccc4ncc(N5CC(N6C7CCC6COC7)C5)cc4n3)ccc2o1` [Compound 618], the IC50 is below 0.1 µM on PI3K α (read-out: PI3K α IC50, Table 4); above 10 µM at PI3K β (read-out: PI3K β IC50, Table 4); below 1 µM on PI3K γ (read-out: PI3K γ IC50, Table 4); below 10 µM at PI3K δ.

As to `Nc1nc2cc(-c3ccc4ncc(N5CC(N6CCN(C7CC7)CC6)C5)nc4n3)ccc2o1` [Compound 620], the IC50 at PI3K β (read-out: PI3K β IC50, Table 4) is below 10 µM; on PI3K γ (read-out: PI3K γ IC50, Table 4), below 10 µM; at PI3K δ it was below 10 µM.

As for `Nc1nc2cc(-c3cnc4ccc(N5CCOCC5)nc4c3)ccc2o1` [Compound 624], the IC50 at PI3K α (read-out: PI3K α IC50, Table 4) is below 10 µM; on PI3K γ (read-out: PI3K γ IC50, Table 4), below 10 µM.

With `CCN1CCN(C2CN(c3cnc4ccc(-c5ccc6oc(N)nc6c5)nc4n3)C2)CC1` [Compound 627], the IC50 on PI3K β (read-out: PI3K β IC50, Table 4) was below 10 µM; at PI3K γ (read-out: PI3K γ IC50, Table 4) it was below 10 µM; on PI3K δ (Table 4), below 10 µM.

As for `CC(C)N1CCN(C2CN(c3cnc4ccc(-c5ccc6oc(N)nc6c5)nc4n3)C2)CC1` [Compound 628], at PI3K α (read-out: PI3K α IC50, Table 4), the IC50 was below 10 µM.

As for `CN1CCN(c2ccc3ncc(-c4ccc5oc(N)nc5c4)cc3n2)CC1` [Compound 631], the IC50 was below 10 µM at PI3K α (read-out: PI3K α IC50, Table 4) and below 10 µM at PI3K β (read-out: PI3K β IC50, Table 4).

Take `Nc1nc2cc(-c3cnc4ccc(N5C6CCC5COC6)nc4c3)ccc2o1` [Compound 632]: the IC50 on PI3K α (read-out: PI3K α IC50) is below 10 µM; on PI3K β (read-out: PI3K β IC50, Table 4) it was above 10 µM; on PI3K γ (read-out: PI3K γ IC50), below 10 µM; on PI3K δ it was above 10 µM.

Consider `CC(C)(N)C(=O)N1CCN(c2ccc3ncc(-c4ccc5oc(N)nc5c4)cc3n2)CC1` [Compound 633], for which the half-maximal inhibitory concentration (IC50) on PI3K α (read-out: PI3K α IC50, Table 4) was below 10 µM.
